Laboratory results: patent publication US12552790B2, “Positive modulators of the muscarinic acetylcholine receptor M4” (Vanderbilt University, priority 2023, dated 2026)

Assays:
Human M2 = molecular target: T1, Human M2 (Homo sapiens, UniProt P08172); assay: M2 cell-based functional assay, calcium mobilization (selectivity); details: for Emax at 30 µM: % ACh maximum at 30 μM
T1 construct: expressed in transfected cells; host or cells: CHO-K1
T1 sequence (P08172 1-466): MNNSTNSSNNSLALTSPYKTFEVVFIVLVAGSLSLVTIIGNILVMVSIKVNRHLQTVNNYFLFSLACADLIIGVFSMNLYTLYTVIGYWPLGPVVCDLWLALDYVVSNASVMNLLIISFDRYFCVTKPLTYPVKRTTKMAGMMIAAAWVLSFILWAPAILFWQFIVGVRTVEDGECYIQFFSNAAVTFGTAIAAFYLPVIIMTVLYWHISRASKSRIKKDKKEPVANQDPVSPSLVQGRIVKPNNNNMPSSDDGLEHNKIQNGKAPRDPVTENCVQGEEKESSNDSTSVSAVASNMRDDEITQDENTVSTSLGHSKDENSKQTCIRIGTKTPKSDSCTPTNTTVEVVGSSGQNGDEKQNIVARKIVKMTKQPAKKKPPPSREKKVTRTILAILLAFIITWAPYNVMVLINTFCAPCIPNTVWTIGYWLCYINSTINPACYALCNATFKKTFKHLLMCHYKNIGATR
Procedure: (§1) The high throughput assay was employed to measure receptor-induced mobilization of intracellular calcium to determine compound activity. Test compound was added to cells expressing the muscarinic receptors that were loaded with calcium sensitive fluorescent dye. After a ˜2.5 minute incubation period, a submaximal (EC20) concentration of acetylcholine was added, and the response measured. This kinetic assay allows for simultaneous screening and potency determination of multiple pharmacological modes of action including agonist and potentiator activity. CHO-K1 cells stably expressing muscarinic receptors were plated in growth medium lacking G418 and hygromycin at 15,000 cells/20 μL/well in Greiner 384-well black-walled, tissue culture (TC)-treated, clear-bottom plates (Greiner Bio-One). Cells were incubated overnight at 37° C. and 5% CO2. The next day, calcium assay buffer (Hank's balanced salt solution (HBSS), 20 mM HEPES, 2.5 mM Probenecid, 4.16 mM sodium bicarbonate (Sigma-Aldrich, St. Louis, MO)) was prepared to dilute compounds, agonists, and Fluo-4-acetomethoxyester (Fluo-4-AM), fluorescent calcium indicator dye. Compounds were serially diluted 1:3 into 10 point concentration response curves in DMSO using the Bravo Liquid Handler (Agilent, Santa Clara, CA), transferred to a 384 well daughter plates using an Echo acoustic liquid handler (Beckman Coulter, Indianapolis, Indiana), and diluted in assay Buffer to a 2× final concentration. The agonist plates were prepared using acetylcholine (ACh, Sigma-Aldrich, St. Louis, MO) concentrations for the EC20 and ECMAX responses by diluting in assay buffer to a 5× final concentration. The 2× dye solution (2.3 μM) was prepared by mixing a 2.3 mM Fluo-4-AM stock in DMSO with 10% (w/v) pluronic acid F-127 in a 1:1 ratio in assay buffer. Using a microplate washer (BioTek, Winooski, VT), cells were washed with assay buffer for 3 times to remove medium. After the final wash, 20 μL of assay buffer remained in the cell plates. Immediately, 20 μL of the 2× dye solution (final 1.15 μM) was added to each well of the cell plate using a Multidrop Combi dispenser (Thermo Fisher, Waltham, MA). After cells were incubated with the dye solutions for 45 min at 37° C. in the presence of 5% CO2, the dye solutions were removed and replaced with assay buffer using a microplate washer, leaving 20 μL of assay buffer in the cell plate.
The prepared compound, agonist, and cell plates were placed inside the Functional Drug Screening System uCell (FDSS uCell, Hamamatsu, Japan) to measure the calcium flux. The triple add protocol was used to measure Ca kinetics; Compound, ACh for EC20, and ACh for EC80 adds in an order. Briefly, after establishment of a fluorescence baseline for 2 seconds (excitation, 480 nm; emission, 530 nm), first add occurred by adding 20 μL of test compound to the cells, and the response was measured for 140 seconds. This is followed by second add; 10 μL (5×) of an EC20 concentration of ACh agonist was added to the cells, and the response of the cells was measured for 125 seconds. Immediately, the third add occurred by adding […] (5×) of an EC80 concentration of ACh and the response of the cells was measured for 90 seconds. Acetylcholine-mediated maximum response (ECmax) was measured by adding 1 mM ACh as third add in the control wells. DMSO vehicle was added to the control wells in the first add for assessing ACh EC20, EC80, and ECmax responses. Calcium fluorescence was recorded as fold over basal fluorescence and raw data were normalized to the maximal response to ACh agonist. Agonist activity was analyzed as a concentration-dependent increase in calcium mobilization upon compound addition. Positive allosteric modulator activity was analyzed as a concentration-dependent increase in the EC20 acetylcholine response. Antagonist activity was analyzed as a concentration-dependent decrease in the EC80 acetylcholine response. […]

Human M4 = molecular target: T2, Human M4 (Homo sapiens, UniProt P08173); assay: M4 cell-based functional assay, calcium mobilization, potentiation of ACh EC20; details: for Emax at 30 µM: % ACh maximum at 30 μM; for EC50: CHO-K1 hM4-Gqi5 cells, calcium flux, ACh EC20
T2 construct: expressed in transfected cells
T2 sequence (P08173 1-479): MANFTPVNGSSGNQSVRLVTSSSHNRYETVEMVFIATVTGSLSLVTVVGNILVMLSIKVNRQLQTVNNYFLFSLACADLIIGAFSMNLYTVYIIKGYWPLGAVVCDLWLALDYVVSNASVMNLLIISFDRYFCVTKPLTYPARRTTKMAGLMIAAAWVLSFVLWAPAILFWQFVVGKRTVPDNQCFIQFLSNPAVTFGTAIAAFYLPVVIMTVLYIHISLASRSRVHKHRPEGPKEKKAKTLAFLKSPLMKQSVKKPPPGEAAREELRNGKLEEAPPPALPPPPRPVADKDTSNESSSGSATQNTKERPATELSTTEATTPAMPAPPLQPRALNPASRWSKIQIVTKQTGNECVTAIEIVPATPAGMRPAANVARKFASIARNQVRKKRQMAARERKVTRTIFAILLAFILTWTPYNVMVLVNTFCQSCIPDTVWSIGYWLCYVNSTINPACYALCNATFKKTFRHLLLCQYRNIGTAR
Procedure: Human and rat M4 cDNAs, along with the chimeric G protein Gqi5, were transfected into Chinese hamster ovary (CHO-K1) cells purchased from the American Type Culture Collection using Lipofectamine2000. The transfected cells were subjected to selection antbiotic treatment to generate stable cell lines; G418 sulfate (1 mg/ml) for selecting M4 expressing cells and Hygromycin B (500 μg/mL) for selecting Gqi5 expressing cells. The resulting polyclones were further screened to obtain monoclones of hM4-Gqi5 and rM4-Gqi5 for compound screening assay. Stable monoclone cells were maintained in Ham's F-12 medium containing 10% heat-inactivated fetal bovine serum (FBS), 1× Antibiotic/Antimycotic, 20 mM HEPES, 500 μg/mL G418 sulfate, and 200 μg/mL Hygromycin B in 37° C. humidified incubators in the presence of 5% CO2.
as §1
The prepared compound, agonist, and cell plates were placed inside the Functional Drug Screening System uCell (FDSS uCell, Hamamatsu, Japan) to measure the calcium flux. The triple add protocol was used to measure Ca kinetics; Compound, ACh for EC20, and ACh for EC80 adds in an order. Briefly, after establishment of a fluorescence baseline for 2 seconds (excitation, 480 nm; emission, 530 nm), first add occurred by adding 20 μL of test compound to the cells, and the response was measured for 140 seconds. This is followed by second add; 10 μL (5×) of an EC20 concentration of ACh agonist was added to the cells, and the response of the cells was measured for 125 seconds. […]

[1] = M2 cell-based functional assay, calcium flux

Emax at 30 µM (Human M2) [%] | EC50 (Human M2; [1]) [nM] | Emax at 30 µM (Human M4) [%] | EC50 (Human M4) [nM] | Human M2 EC50 (Human M2; [1]) | SMILES
60 | 508 | 73 | 5 | – | [2H]C1([2H])CC(Oc2ccc3c(c2)OCCO3)CC([2H])([2H])N1c1nc2c(cc1C)C(=O)NC2 [Compound 11, 2-(4-((2,3-dihydrobenzo[b][1,4]dioxin-6-yl)oxy)piperidin-1-yl-2,2,6,6-d4)-3-methyl-6,7-dihydro-5H-pyrrolo[3,4-b]pyridin-5-one]
60 | 330 | 93 | 3 | – | [2H]C1(Oc2ccc3c(c2)OCCO3)CCN(c2nc3c(cc2C)C(=O)NC3)CC1 [Compound 10, 2-(4-((2,3-dihydrobenzo[b][1,4]dioxin-6-yl)oxy)piperidin-1-yl-4-d)-3-methyl-6,7-dihydro-5H-pyrrolo[3,4-b]pyridin-5-one]
53 | 1110 | 98 | 3 | – | [2H]C([2H])([2H])n1nc2nc(N3CCC(Oc4ccc5c(c4)OC([2H])([2H])C([2H])([2H])O5)CC3)c(C)c(C)n2c1=O [Compound A18, 7-(4-((2,3-dihydrobenzo[b][1,4]dioxin-6-yl-2,2,3,3-d4)oxy)piperidin-1-yl)-5,6-dimethyl-2-(methyl-d3)-[1,2,4]triazolo[4,3-a]pyrimidin-3(2H)-one]
68 | 1380 | 88 | 9 | – | [2H]C1([2H])Oc2ccc(OC3CCN(c4nc5nn([C@@H]6CCOC6)c(=O)n5cc4C)CC3)cc2OC1([2H])[2H] [Compound A4, (R)-7-(4-((2,3-dihydrobenzo[b][1,4]dioxin-6-yl-2,2,3,3-d4)oxy)piperidin-1-yl)-6-methyl-2-(tetrahydrofuran-3-yl)-[1,2,4]triazolo[4,3-a]pyrimidin-3(2H)-one]
64 | 867 | 78 | 9 | – | [2H]C1([2H])Oc2ccc(OC3CCN(c4nc5c(cc4C)C(=O)N(C4CC4)C5)CC3)cc2OC1([2H])[2H] [Compound 6, 6-cyclopropyl-2-(4-((2,3-dihydrobenzo[b][1,4]dioxin-6-yl-2,2,3,3-d4)oxy)piperidin-1-yl)-3-methyl-6,7-dihydro-5H-pyrrolo[3,4-b]pyridin-5-one]
– | – | 87 | 64 | Inactive | [2H]C1([2H])Oc2ccc(OC3CCN(c4nc5n[nH]c(=O)n5c5c4CCCC5)CC3)cc2OC1([2H])[2H] [Compound A17, 5-(4-((2,3-dihydrobenzo[b][1,4]dioxin-6-yl-2,2,3,3-d4)oxy)piperidin-1-yl)-6,7,8,9-tetrahydro-[1,2,4]triazolo[4,3-a]quinazolin-1(2H)-one]
66 | 2870 | 87 | 12 | – | [2H]C1([2H])Oc2ccc(OC3CCN(c4nc5nn([C@H]6CCOC6)c(=O)n5cc4C)CC3)cc2OC1([2H])[2H] [Compound A5, (S)-7-(4-((2,3-dihydrobenzo[b][1,4]dioxin-6-yl-2,2,3,3-d4)oxy)piperidin-1-yl)-6-methyl-2-(tetrahydrofuran-3-yl)-[1,2,4]triazolo[4,3-a]pyrimidin-3(2H)-one]
70 | 219 | 76 | 4 | – | [2H]C1([2H])Oc2ccc(OC3CCN(c4nc5c(cc4C)C(=O)N(C)C5)CC3)cc2OC1([2H])[2H] [Compound 5, 2-(4-((2,3-dihydrobenzo[b][1,4]dioxin-6-yl-2,2,3,3-d4)oxy)piperidin-1-yl)-3,6-dimethyl-6,7-dihydro-5H-pyrrolo[3,4-b]pyridin-5-one]
48 | 2860 | 84 | 4 | – | [2H]C1([2H])Oc2ccc(OC3CCN(c4nc5n[nH]c(=O)n5c5c4CCC5)CC3)cc2OC1([2H])[2H] [Compound A16, 5-(4-((2,3-dihydrobenzo[b][1,4]dioxin-6-yl-2,2,3,3-d4)oxy)piperidin-1-yl)-2,6,7,8-tetrahydro-1H-cyclopenta[e][1,2,4]triazolo[4,3-a]pyrimidin-1-one]
